{"source": "patent US20150104511A1", "about": "“Pharmaceutical Antiretroviral Combinations Comprising Lamivudine, Festinavir and Nevirapine” (Cipla Limited, priority 2012, published 2015)", "origin": "cited, not measured here", "key": {"mtDNA pol γ": {"target": "T1, mtDNA pol γ (Homo sapiens, UniProt P54098)", "T1 sequence (P54098 1-1239)": "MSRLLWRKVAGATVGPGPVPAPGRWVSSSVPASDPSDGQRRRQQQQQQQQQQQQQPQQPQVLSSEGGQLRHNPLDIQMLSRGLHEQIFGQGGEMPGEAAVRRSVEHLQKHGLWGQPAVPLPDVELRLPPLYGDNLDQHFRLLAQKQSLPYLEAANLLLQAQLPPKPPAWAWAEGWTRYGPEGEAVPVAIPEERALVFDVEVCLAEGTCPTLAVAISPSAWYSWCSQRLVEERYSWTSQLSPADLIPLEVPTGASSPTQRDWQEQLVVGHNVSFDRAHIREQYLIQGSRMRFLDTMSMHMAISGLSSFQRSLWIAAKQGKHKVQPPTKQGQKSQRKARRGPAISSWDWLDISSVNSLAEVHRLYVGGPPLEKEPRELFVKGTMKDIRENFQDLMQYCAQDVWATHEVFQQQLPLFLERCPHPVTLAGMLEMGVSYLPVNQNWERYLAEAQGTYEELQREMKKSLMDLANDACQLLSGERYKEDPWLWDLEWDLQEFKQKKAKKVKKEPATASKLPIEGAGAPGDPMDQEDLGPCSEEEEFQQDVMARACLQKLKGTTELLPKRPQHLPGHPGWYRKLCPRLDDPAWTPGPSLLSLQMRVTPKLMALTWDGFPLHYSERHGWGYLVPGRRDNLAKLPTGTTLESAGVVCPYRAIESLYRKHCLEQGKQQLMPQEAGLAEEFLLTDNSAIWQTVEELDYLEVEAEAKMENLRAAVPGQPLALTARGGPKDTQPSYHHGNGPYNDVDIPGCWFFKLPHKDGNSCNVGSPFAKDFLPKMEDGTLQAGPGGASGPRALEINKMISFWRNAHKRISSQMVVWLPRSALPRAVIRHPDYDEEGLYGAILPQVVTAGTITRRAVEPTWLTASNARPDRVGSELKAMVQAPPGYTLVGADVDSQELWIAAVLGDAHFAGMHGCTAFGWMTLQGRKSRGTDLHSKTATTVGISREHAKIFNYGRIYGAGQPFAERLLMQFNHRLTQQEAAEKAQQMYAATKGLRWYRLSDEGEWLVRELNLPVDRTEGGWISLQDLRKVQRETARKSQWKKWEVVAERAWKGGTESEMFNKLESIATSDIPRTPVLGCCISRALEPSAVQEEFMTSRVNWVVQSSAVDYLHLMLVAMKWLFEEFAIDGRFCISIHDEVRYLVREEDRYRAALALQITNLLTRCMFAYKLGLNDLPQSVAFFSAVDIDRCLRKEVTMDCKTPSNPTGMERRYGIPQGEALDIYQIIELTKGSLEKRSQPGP", "conditions": "compared to d4T-triphosphate"}, "[1]": {"target": "RT (Reverse Transcriptase) (Human immunodeficiency virus type 1 group M subtype B, UniProt P04585)", "conditions": "compared to d4T-triphosphate"}}, "data": [{"smiles": "C#C[C@@]1(COP(=O)(O)OP(=O)(O)OP(=O)(O)O)C=C[C@H](n2cc(C)c(=O)[nH]c2=O)O1", "note": "[4′-Ed4T triphosphate]", "values": [{"measurement": "interactions with mtDNA pol γ", "setting": "mtDNA pol γ", "value": "reduces the interactions with mtDNA pol γ"}, {"measurement": "increase in affinity to RT (Reverse Transcriptase)", "setting": "[1]", "value": "approximately 5 fold"}]}, {"smiles": "C#C[C@@]1(CO)C=C[C@H](n2cc(C)c(=O)[nH]c2=O)O1", "note": "[Festinavir, 2′,3′-didehydro-3′-deoxy-4′-ethynylthymidine]", "values": [{"measurement": "persistence of anti-HIV activity after drug removal", "setting": "HIV; compared with the other thymidine analogs", "value": "more persistent anti-HIV activity after drug removal"}, {"measurement": "improved potency as compared to stavudine (d4T)", "setting": "HIV; relative to stavudine (d4T)", "value": "5-10 fold"}, {"measurement": "in vitro toxicity, including effects on mtDNA", "setting": "mtDNA; as compared to stavudine (d4T)", "value": "reduced in vitro toxicity"}, {"measurement": "cellular and mitochondrial toxicity", "setting": "mtDNA; compared with stavudine (d4T)", "value": "lower cellular and mitochondrial toxicity"}]}]}
